# Experimental data from ChEMBL document CHEMBL1128658, “Isolation, structure determination and squalene synthase activity of L-731,120 and L-731,128, alkyl citrate analogs of zaragozic acids A and B” (Bioorg Med Chem Lett, 1995).
# Key:
# Mus musculus [1] = species on record: Mus musculus; experiment: animal or person; type: functional; details: po
# Description: In vivo inhibitory activity against mouse hepatic cholesterol synthesis administered orally at 24 mpk
# Mus musculus [2] = experiment: In vivo inhibitory activity against mouse hepatic cholesterol synthesis administered orally at 48 mpk; type: functional; details: po
# Squalene synthase = target: T1, Squalene synthase (Rattus norvegicus, UniProt Q02769); experiment: In vitro inhibitory activity against rat squalene synthase
# T1 sequence (Q02769 whole entry): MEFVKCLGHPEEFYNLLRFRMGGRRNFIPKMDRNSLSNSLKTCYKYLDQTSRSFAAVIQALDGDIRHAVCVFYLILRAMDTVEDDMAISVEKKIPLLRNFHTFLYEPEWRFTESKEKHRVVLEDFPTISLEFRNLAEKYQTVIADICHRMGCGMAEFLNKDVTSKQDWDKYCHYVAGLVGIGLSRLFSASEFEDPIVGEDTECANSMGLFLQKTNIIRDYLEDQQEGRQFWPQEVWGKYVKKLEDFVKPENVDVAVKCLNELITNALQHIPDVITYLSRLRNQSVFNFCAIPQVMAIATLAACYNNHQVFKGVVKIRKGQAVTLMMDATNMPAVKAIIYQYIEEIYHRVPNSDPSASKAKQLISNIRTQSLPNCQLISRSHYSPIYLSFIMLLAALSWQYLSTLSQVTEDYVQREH
# Mus musculus [3] = experiment: In vivo inhibitory activity against mouse hepatic cholesterol synthesis administered subcutaneously; type: functional; details: sc
# Mus musculus [4] = experiment: In vivo inhibitory activity against mouse hepatic cholesterol synthesis administered orally at 40 mpk; type: functional; details: po
IC50 (Squalene synthase) [µM],SMILES,inhibition in vivo at 24 mg/kg (Mus musculus [1]) [%],inhibition in vivo at 48 mg/kg (Mus musculus [2]) [%],ED50 (Mus musculus [3]) [mg/kg],inhibition in vivo at 40 mg/kg (Mus musculus [4]) [%]
,C=C(CCC12OC(C(=O)O)C(O)(C(=O)O)C(C(=O)O)(O1)[C@H](O)[C@H]2O)[C@@H](OC(C)=O)[C@H](C)Cc1ccccc1 (stereo partly drawn),34,,,
0.26,C/C(=C\C(C)Cc1ccccc1)CCCCCC(C(=O)O)C(O)(CC(=O)O)C(=O)O (stereo not drawn),,0,15,
9,CCCCCCCCCCCCCCCCC(C(=O)O)C(O)(CC(=O)O)C(=O)O (stereo not drawn),,0,,
,C=C(CCC12OC(C(=O)O)C(O)(C(=O)O)C(C(=O)O)(O1)[C@H](OC(=O)/C=C/[C@@H](C)C[C@@H](C)CC)[C@H]2O)[C@@H](OC(C)=O)[C@H](C)Cc1ccccc1 (stereo partly drawn) [ZARAGOZIC ACID A],,,0.2,20
